Data: US20060122276A1, “Agent for inhibiting membrane virus reproduction, method for the production thereof, pharmaceutical composition and method for inhibiting viral infections” (priority 2003, published 2006)
Read-outs that look alike come from different tables or passages of the source.

Experiments:
[1] = for Solubility in o-Dichlorobenzene: solvent o-dichlorobenzene
[2] = tested on: herpes simplex virus (HSV-1); assay: Antiviral activity with respect to HSV-1 in VERO cells; format: cell-based, type 1, strain L2; details: HSV-1, 10 TCD50/ml, VERO; for Degree of protection from CE virus, % A: substance contact time with cells 24 hrs; for Degree of protection from CE virus, % B: substance contact time with cells 48 hrs
From the text: Herpes simplex virus, type 1, strain L2, replicated in VERO cells was used in the investigation.
[…] acyclovir was used as positive control

HIV-1 = details: for CPE/syncytia, % / Viability of cells, %: HIV-1; for CPE/syncytia, %: Table 9; for Viability of cells, %: Table 9 (virus control 42)
Description: Cells Reinoculated humans lymphoblastoid cells MT-4 were used. […] The viability of the cells was determined from the color of a 0.4% solution of trypan blue.
Retrovir (azidothymidin) produced by GlaxoWellcome (Great Britain) was used as positive control.
The Antiviral activity of the preparations was investigated on a model of lymphoblastoid cells in a plastic 24-cell plate. The virus dose was 100 TCD50 (50% tissue cytopathic dose). […] The activity of the preparation was determined from the inhibition of the virus-induced cytopathic action (CPA) in the cell cultures and the virus antigen level in the culture fluid by immunoenzymatic analysis.

[3] = tested on: lymphoblastoid human cells MT-4; assay: Cytotoxicity on non-infected human lymphoblastoid cells; format: cell-based; details: cytotoxicity
[4] = 300 μg/ml, human lymphoblastoid cells

| Compound | Solubility in o-Dichlorobenzene [1] | Degree of protection from CE virus, % A ([2]; 10.0 μg/ml) [%] | Degree of protection from CE virus, % B ([2]; 10.0 μg/ml) [%] | Antiviral activity with respect to HIV-1 compared with fullerene-polyamino-caproic acid (HIV-1) | CPE/syncytia, % (HIV-1; 0.1 μg/ml) [%] | Viability of cells, % (HIV-1; 0.1 μg/ml) [%] | CPE/syncytia, % (HIV-1; 0.5 μg/ml) [%] | Viability of cells, % (HIV-1; 0.5 μg/ml) [%] | CPE/syncytia, % (HIV-1; 1.0 μg/ml) [%] | Viability of cells, % (HIV-1; 1.0 μg/ml) [%] | CPE/syncytia, % (HIV-1; 10.0 μg/ml) [%] | Viability of cells, % (HIV-1; 10.0 μg/ml) [%] | also measured |
| --- | --- | --- | --- | --- | --- | --- | --- | --- | --- | --- | --- | --- | --- |
| c12c3c4c5c1c1c6c7c2c2c8c3c3c9c4c4c%10c5c5c1c1c6c6c%11c7c2c2c7c8c3c3c8c9c4c4c9c%10c5c5c1c1c6c6c%11c2c2c7c3c3c8c4c4c9c5c1c1c6c2c3c41 [Fullerene] | Yes | – | – | – | – | – | – | – | – | – | – | – | Solubility in Glacial acetic acid ([1]; solvent glacial acetic acid): No; Solubility in Toluene ([1]; solvent toluene): Yes; Solubility in Water ([1]; solvent water): No |
| sodium salt of fullerene-polyamino-butyric acid [ABA] | No | 33.3 | 33.3 | lower antiviral activity | 25 | 52 | 15 | 65 | 10 | 71 | 0 | 72 | Degree of protection from CE virus, % A ([2]; 0.1 μg/ml): 0.0%; Degree of protection from CE virus, % B ([2]; 0.1 μg/ml): 33.3%; Degree of protection from CE virus, % A ([2]; 25.0 μg/ml): 100%; Degree of protection from CE virus, % B ([2]; 25.0 μg/ml): 100%; Degree of protection from CE virus, % A ([2]; 50.0 μg/ml): 100%; Degree of protection from CE virus, % B ([2]; 50.0 μg/ml): 100% |
| sodium salt of fullerene-polyamino-octanoic acid [AOA] | – | 100 | 100 | lower antiviral activity | 25 | 50 | 25 | 53 | 25 | 57 | 0 | 60 | Degree of protection from CE virus, % A ([2]; 1.0 μg/ml): 33.3%; Degree of protection from CE virus, % B ([2]; 1.0 μg/ml): 100%; Viability of cells, % ([3]; 100 μg/ml, human lymphoblastoid cells (cell control 95)): 79%; Number of cells × 10^3/ml ([3]; 100 μg/ml, human lymphoblastoid cells (cell control 250)): 150 × 10^3/ml; Number of cells × 10^3/ml [3, 4]: 150 × 10^3/ml; Viability of cells, % [3, 4]: 82% |
